Source: patent US11807650B2, “NMDA receptor modulators and uses thereof” (Novartis AG, priority 2016, dated 2023)
Structures can show the parent of a compound that is named as a salt.

Biological target: T1, human GRIN1 (transcript variant NR1-3) and GRIN2D expressed in Xenopus oocytes (Homo sapiens, UniProt O15399)
T1 construct: GenScript (GRIN2D synthesis) SC115601; host or cells: Xenopus oocytes injected with cRNA (1 GluN1 : 2 GluN2)
Assay: NR2D oocyte potentiation assay (two-electrode voltage clamp)
Assay type: cell-based
Conditions: 10 uM test compound; glutamate and glycine 10 μM each; holding potential −40 mV
How it was run: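 Xenopus oocytes were defolliculated with collagenase, then injected with 50 nL of cRNA encoding human GluN1 (NR1-3 variant) and GluN2D mixed 1:2 and kept 72 h at 16° C. Two-electrode voltage clamp at −40 mV recorded currents; after 10 μM glutamate plus 10 μM glycine reached plateau, test compound was added until a new plateau formed.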

T1 sequence (O15399 28-1336, other chains not shown): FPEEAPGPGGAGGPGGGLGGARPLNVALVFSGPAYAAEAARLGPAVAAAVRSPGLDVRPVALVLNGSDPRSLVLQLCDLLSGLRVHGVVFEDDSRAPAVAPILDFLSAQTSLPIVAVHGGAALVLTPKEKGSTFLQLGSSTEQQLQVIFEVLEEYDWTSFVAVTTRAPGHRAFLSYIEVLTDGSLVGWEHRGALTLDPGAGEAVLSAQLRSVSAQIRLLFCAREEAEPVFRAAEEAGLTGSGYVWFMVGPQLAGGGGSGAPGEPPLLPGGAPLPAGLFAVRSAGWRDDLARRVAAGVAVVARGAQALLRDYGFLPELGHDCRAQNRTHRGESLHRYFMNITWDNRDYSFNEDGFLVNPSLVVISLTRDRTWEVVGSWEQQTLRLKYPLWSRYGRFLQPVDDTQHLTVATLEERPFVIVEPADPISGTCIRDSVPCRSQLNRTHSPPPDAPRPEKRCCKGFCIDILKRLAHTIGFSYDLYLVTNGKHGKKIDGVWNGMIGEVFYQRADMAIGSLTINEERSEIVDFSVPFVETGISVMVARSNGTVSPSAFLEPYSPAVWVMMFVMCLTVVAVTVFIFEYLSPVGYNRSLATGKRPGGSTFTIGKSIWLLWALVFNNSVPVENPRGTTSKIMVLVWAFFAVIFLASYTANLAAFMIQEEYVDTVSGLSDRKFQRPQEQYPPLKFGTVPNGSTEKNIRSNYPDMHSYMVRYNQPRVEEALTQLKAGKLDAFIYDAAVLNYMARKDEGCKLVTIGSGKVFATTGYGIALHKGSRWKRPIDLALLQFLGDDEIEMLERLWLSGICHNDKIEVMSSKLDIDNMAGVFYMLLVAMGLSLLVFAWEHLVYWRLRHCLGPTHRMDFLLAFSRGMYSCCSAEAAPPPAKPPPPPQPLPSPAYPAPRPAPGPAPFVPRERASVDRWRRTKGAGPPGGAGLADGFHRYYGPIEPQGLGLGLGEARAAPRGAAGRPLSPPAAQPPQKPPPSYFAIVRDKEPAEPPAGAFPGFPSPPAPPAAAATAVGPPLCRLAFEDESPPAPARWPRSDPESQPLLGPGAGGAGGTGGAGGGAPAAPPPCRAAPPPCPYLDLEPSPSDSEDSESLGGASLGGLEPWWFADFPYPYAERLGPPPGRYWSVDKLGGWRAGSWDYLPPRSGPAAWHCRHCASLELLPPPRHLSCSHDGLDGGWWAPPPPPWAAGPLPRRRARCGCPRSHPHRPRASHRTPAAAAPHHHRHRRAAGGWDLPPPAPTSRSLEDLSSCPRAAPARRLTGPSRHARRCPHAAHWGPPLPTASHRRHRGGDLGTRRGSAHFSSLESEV

Row | Compound | activation at 10 µM | NR2D Oocyte % Potentiation @ 10 uM
1 | CC(C)(C)c1ncc(-c2nc3n(c(=O)c2C#N)C[C@@H](CF)CS3)cn1 [Example 141, (S)-8-(2-(tert-butyl)pyrimidin-5-yl)-3-(fluoromethyl)-6-oxo-3,4-dihydro-2H,6H-pyrimido[2,1-b][1,3]thiazine-7-carbonitrile] | 500 to 1000% | –
2 | CC(C)(C)c1ncc(-c2nc3n(c(=O)c2C#N)C[C@H](CF)CS3)cn1 [Example 142, (R)-8-(2-(tert-butyl)pyrimidin-5-yl)-3-(fluoromethyl)-6-oxo-3,4-dihydro-2H,6H-pyrimido[2,1-b][1,3]thiazine-7-carbonitrile] | 500 to 1000% | –
3 | CC(C)(C)c1ccc(-c2nc3n(c(=O)c2C#N)CC(C(F)(F)F)CS3)cn1 (centres unmarked) [Example 143, 8-(6-(tert-butyl)pyridin-3-yl)-6-oxo-3-(trifluoromethyl)-3,4-dihydro-2H,6H-pyrimido[2,1-b][1,3]thiazine-7-carbonitrile] | 100 to 500% | –
4 | CC(C)(C)OC(=O)NCC1CSc2nc(-c3ccc(C(C)(C)C)nc3)c(C#N)c(=O)n2C1 (centres unmarked) [Example 144, tert-butyl ((8-(6-(tert-butyl)pyridin-3-yl)-7-cyano-6-oxo-3,4-dihydro-2H,6H-pyrimido[2,1-b][1,3]thiazin-3-yl)methyl)carbamate] | > 1000% | –
5 | CC(C)(C)c1ccc(-c2nc3n(c(=O)c2C#N)CC(CN)CS3)cn1 (centres unmarked) [Example 145, 3-(aminomethyl)-8-(6-(tert-butyl)pyridin-3-yl)-6-oxo-3,4-dihydro-2H,6H-pyrimido[2,1-b][1,3]thiazine-7-carbonitrile hydrochloride] | 10 to 100% | –
6 | CC(=O)NCC1CSc2nc(-c3cnc(C(C)(C)C)c(F)c3)c(C#N)c(=O)n2C1 (centres unmarked) [Example 146, N-((8-(6-(tert-butyl)-5-fluoropyridin-3-yl)-7-cyano-6-oxo-3,4-dihydro-2H,6H-pyrimido[2,1-b][1,3]thiazin-3-yl)methyl)acetamide] | > 1000% | –
7 | CCOC(=O)NCC1CSc2nc(-c3cnc(C(C)(C)C)c(F)c3)c(C#N)c(=O)n2C1 (centres unmarked) [Example 147, ethyl ((8-(6-(tert-butyl)-5-fluoropyridin-3-yl)-7-cyano-6-oxo-3,4-dihydro-2H,6H-pyrimido[2,1-b][1,3]thiazin-3-yl)methyl)carbamate] | > 1000% | –
8 | CC1CSc2nc(-c3ccc(C45CC(C4)C5)nc3)c(C#N)c(=O)n2C1 (centres unmarked) [Example 148, 8-(6-(bicyclo[1.1.1]pentan-1-yl)pyridin-3-yl)-3-methyl-6-oxo-3,4-dihydro-2H,6H-pyrimido[2,1-b][1,3]thiazine-7-carbonitrile] | 100 to 500% | –
9 | CC1CSc2nc(-c3cccnc3C34CC(C3)C4)c(C#N)c(=O)n2C1 (centres unmarked) [Example 149, 8-(2-(bicyclo[1.1.1]pentan-1-yl)pyridin-3-yl)-3-methyl-6-oxo-3,4-dihydro-2H,6H-pyrimido[2,1-b][1,3]thiazine-7-carbonitrile] | < 10% | –
10 | CC1CSc2nc(-c3ccc(C45CC(C4)C5)nc3C34CC(C3)C4)c(C#N)c(=O)n2C1 (centres unmarked) [Example 150, 8-(2,6-di(bicyclo[1.1.1]pentan-1-yl)pyridin-3-yl)-3-methyl-6-oxo-3,4-dihydro-2H,6H-pyrimido[2,1-b][1,3]thiazine-7-carbonitrile] | – | Inhibitor
11 | CC1CSc2nc(-c3ccc(C(C)(C)CF)nc3)c(C#N)c(=O)n2C1 (centres unmarked) [Example 151, 8-(6-(1-fluoro-2-methylpropan-2-yl)pyridin-3-yl)-3-methyl-6-oxo-3 4-dihydro-2H,6H-pyrimido[2,1-b][1,3]thiazine-7-carbonitrile] | 500 to 1000% | –

More lines, now with the values ahead:

Row | activation at 10 µM | NR2D Oocyte % Potentiation @ 10 uM | Compound
12 | 100 to 500% | – | CC(C)(CF)c1ccc(-c2nc3n(c(=O)c2C#N)CCCS3)cn1 [Example 152, 8-(6-(1-fluoro-2-methylpropan-2-yl)pyridin-3-yl)-6-oxo-3,4-dihydro-2H,6H-pyrimido[2,1-b][1,3]thiazine-7-carbonitrile]
13 | 100 to 500% | – | CC1CSc2nc(-c3ccc(C4(C)COC4)nc3)c(C#N)c(=O)n2C1 (centres unmarked) [Example 153, 3-methyl-8-(6-(3-methyloxetan-3-yl)pyridin-3-yl)-6-oxo-3,4-dihydro-2H,6H-pyrimido[2,1-b][1,3]thiazine-7-carbonitrile]
14 | 10 to 100% | – | CC1(c2ccc(-c3nc4n(c(=O)c3C#N)CCCS4)cn2)COC1 [Example 154, 8-(6-(3-methyloxetan-3-yl)pyridin-3-yl)-6-oxo-3,4-dihydro-2H,6H-pyrimido[2,1-b][1,3]thiazine-7-carbonitrile]
15 | 100 to 500% | – | CC1CSc2nc(-c3ccc(C(C)(CF)CF)nc3)c(C#N)c(=O)n2C1 (centres unmarked) [Example 155, 8-(6-(1,3-difluoro-2-methylpropan-2-yl)pyridin-3-yl)-3-methyl-6-oxo-3,4-dihydro-2H,6H-pyrimido[2,1-b][1,3]thiazine-7-carbonitrile]
16 | 100 to 500% | – | CC(CF)(CF)c1ccc(-c2nc3n(c(=O)c2C#N)CCCS3)cn1 [Example 156, 8-(6-(1,3-difluoro-2-methylpropan-2-yl)pyridin-3-yl)-6-oxo-3,4-dihydro-2H,6H-pyrimido[2,1-b][1,3]thiazine-7-carbonitrile]
17 | > 1000% | – | CC(C)(C)c1ncc(-c2nc3n(c(=O)c2C#N)C[C@@H](CO)CS3)cc1F [Example 157, (S)-8-(6-(tert-butyl)-5-fluoropyridin-3-yl)-3-(hydroxymethyl)-6-oxo-3,4-dihydro-2H,6H-pyrimido[2,1-b][1,3]thiazine-7-carbonitrile]
18 | > 1000% | – | CC(C)(C)c1ncc(-c2nc3n(c(=O)c2C#N)C[C@H](CO)CS3)cc1F [Example 158, (R)-8-(6-(tert-butyl)-5-fluoropyridin-3-yl)-3-(hydroxymethyl)-6-oxo-3,4-dihydro-2H,6H-pyrimido[2,1-b][1,3]thiazine-7-carbonitrile]
19 | 10 to 100% | – | CC(C)(C)c1ncc(-c2nc3n(c(=O)c2C#N)CC(CN2CCCC2)CS3)cc1F (centres unmarked) [Example 159, 8-(6-(tert-butyl)-5-fluoropyridin-3-yl)-6-oxo-3-(pyrrolidin-1-ylmethyl)-3,4-dihydro-2H,6H-pyrimido[2,1-b][1,3]thiazine-7-carbonitrile]
20 | 10 to 100% | – | CN(C)CC1CSc2nc(-c3cnc(C(C)(C)C)c(F)c3)c(C#N)c(=O)n2C1 (centres unmarked) [Example 160, 8-(6-(tert-butyl)-5-fluoropyridin-3-yl)-3-((dimethylamino)methyl)-6-oxo-3,4-dihydro-2H,6H-pyrimido[2,1-b][1,3]thiazine-7-carbonitrile]
21 | 100 to 500% | – | CN(C)C(=O)C1CSc2nc(-c3cnc(C(C)(C)C)c(F)c3)c(C#N)c(=O)n2C1 (centres unmarked) [Example 161, 8-(6-(tert-butyl)-5-fluoropyridin-3-yl)-7-cyano-N,N-dimethyl-6-oxo-3,4-dihydro-2H,6H-pyrimido[2,1-b][1,3]thiazine-3-carboxamide]
22 | 100 to 500% | – | CC(C)(C)c1ncc(-c2nc3n(c(=O)c2C#N)CC(C(=O)N2CCOCC2)CS3)cc1F (centres unmarked) [Example 162, 8-(6-(tert-butvl)-5-fluoropyndin-3-yl)-3-(morpholine-4-carbonyl)-6-oxo-3,4-dihydro-2H,6H-pyrimido[2,1-b][1,3]thiazine-7-carbonitrile]
23 | > 1000% | – | CNC(=O)C1CSc2nc(-c3cnc(C(C)(C)C)c(F)c3)c(C#N)c(=O)n2C1 (centres unmarked) [Example 163, 8-(6-(tert-butyl)-5-fluoropyridin-3-yl)-7-cyano-N-methyl-6-oxo-3,4-dihydro-2H,6H-pyrimido[2,1-b][1,3]thiazine-3-carboxamide]
